Results: patent publication US5624952A, “[(Benzodioxan, benzofuran or benzopyran) alkylamino] alkyl substituted guanidines” (Janssen Pharmaceutica N.V., priority 1993, dated 1997)
Structures can show the parent of a compound that is named as a salt.

Test system: basilar arteries of pigs
Experiment: Constriction of isolated basilar artery segments of pigs in organ baths (serotonin-like response)
Conditions: Sus scrofa; pig basilar artery segments, 37° C., Krebs-Henseleit; relative to serotonin 3×10^-7 M; estimated from three different preparations; read-out: ED50 (molar concentration at which a test compound causes 50% of the constrictive response obtained with serotonin)
Protocol: Segments of basilar aeries taken from pigs (anaesthetised with sodium pentobarbital) were mounted for recording of isometric tension in organ baths. The preparations were bathed in Krebs--Henseleit solution. The solution was kept at 37° C. and gassed with a mixture of 95% O2 -5% CO2. The Preparations were stretched until a stable basal tension of 2 grams was obtained.
The preparations were made to constrict with serotonin (3×10^-7 M). The response to the addition of serotonin was measured and subsequently the serotonin was washed away.
This Procedure was repeated until stable responses were obtained.
Subsequently the test compound was administered to the organ bath and the constriction of the Preparation was measured. This constrictive response is expressed as a Percentage of the response to serotonin as measured Previously.
The ED50 -value (molar concentration) is defined as the concentration at which a test compound causes 50% of the constrictive response obtained with serotonin. Said
ED50 -values are estimated from experiments on three different preparations.

SMILES | EC50 [nM]
Brc1ccc2c(c1)CCC(CNCCCNC1=NCCCN1)O2 (racemic) [Compound 56, (±)-N-[(6-bromo-3,4-dihydro-2H-1-benzopyran-2-yl)methyl]-N'-(1,4,5,6-tetrahydro-2-pyrimidinyl)-1,3-propanediamine ethanedioate(1:2)] | 187
c1ccc2c(c1)CCC(CNCCCNC1=NCCCN1)O2 (racemic) [Compound 95, (±)-N-[(3,4-dihydro-2H-1-benzopyran-2-yl)methyl]-N'-(1,4,5,6-tetrahydro-2-pyrimidinyl)-1,3-propanediamine dihydrochloride] | 81.7
Fc1ccc2c(c1)CCC(CNCCCNc1ncccn1)O2 (centres unmarked) [Compound 3] | 146
c1cnc(NCCCNC[C@@H]2CCc3ccccc3O2)nc1 [Compound 5] | 515
Fc1ccc2c(c1)CC[C@H](CNCCCNc1ncccn1)O2 [Compound 13] | 42.2
CCc1ccc2c(c1)OC(CNCCCCNc1ncccn1)CC2 (centres unmarked) [Compound 18] | 49
Fc1ccc2c(c1)CC[C@H](CNCCNc1ncccn1)O2 [Compound 46, (-)-(R)-N-[(6-fluoro-3,4-dihydro-2H-1-benzopyran-2yl)methyl]-N'-(2-pyrimidinyl)-1,2-ethanediamine] | 1000
c1cnc(NCCCCNCC2CCc3ccccc3O2)nc1 (centres unmarked) [Compound 48] | 306
c1ccc2c(c1)CCC(CNCCNC1=NCCCN1)O2 (centres unmarked) [Compound 57] | 542
c1ccc2c(c1)CC[C@H](CNCCCNC1=NCCCN1)O2 [Compound 62, (-)-(R)-N-[(3,4-dihydro-2H-1-benzopyran-2-yl)methyl]-N'-(1,4,5,6-tetrahydro-2-pyrimidinyl)-1,3-propanediamine dihydrochloride hemihydrate] | 31.7
Fc1ccc2c(c1)CCC(CNCCCNC1=NCCCN1)O2 (centres unmarked) [Compound 63] | 121
c1ccc2c(c1)OCC(CNCCCNC1=NCCCN1)O2 (centres unmarked) [Compound 64] | 89.7
c1ccc2c(c1)CC[C@@H](CNCCCNC1=NCCCN1)O2 [Compound 65] | 221
c1ccc2c(c1)CC(CNCCCNC1=NCCCN1)O2 (centres unmarked) [Compound 66] | 656
Cc1ccc2c(c1)OC(CNCCCNC1=NCCCN1)CC2 (centres unmarked) [Compound 67] | 17.7
Fc1ccc2c(c1)CCC(CNCCCCCCNC1=NCCCN1)O2 (centres unmarked) [Compound 68] | 33.3
Fc1ccc2c(c1)CC[C@H](CNCCCNC1=NCCCN1)O2 [Compound 70] | 6.37
Fc1ccc2c(c1)OC(CNCCCNC1=NCCCN1)CC2 (centres unmarked) [Compound 72] | 23.4
CCc1ccc2c(c1)OC(CNCCCNC1=NCCCN1)CC2 (centres unmarked) [Compound 73] | 3.46
COc1cccc2c1OC(CNCCCNC1=NCCCN1)CC2 (centres unmarked) [Compound 76] | 9.19
COc1ccc2c(c1)OC(CNCCCNC1=NCCCN1)CC2 (centres unmarked) [Compound 78] | 35.4
CCc1ccc2c(c1)OC(CNCCCCCNC1=NCCCN1)CC2 (centres unmarked) [Compound 82] | 17.6
Cc1cccc2c1OC(CNCCCNC1=NCCCN1)CC2 (centres unmarked) [Compound 84] | 13.3
CC(C)c1ccc2c(c1)OC(CNCCCNC1=NCCCN1)CC2 (centres unmarked) [Compound 86] | 41.6
CCCCc1ccc2c(c1)OC(CNCCCNC1=NCCCN1)CC2 (centres unmarked) [Compound 87] | 88.7
CCCc1ccc2c(c1)OC(CNCCCNC1=NCCCN1)CC2 (centres unmarked) [Compound 88] | 7.02
CC(C)(C)c1ccc2c(c1)OC(CNCCCNC1=NCCCN1)CC2 (centres unmarked) [Compound 89] | 79.4
c1ccc2c(c1)CCC(CNCCCCNC1=NCCCN1)O2 (centres unmarked) [Compound 97] | 97.6

More lines, now with the values ahead:

EC50 [nM] | SMILES
46.9 | CC(C)NC(=N)NCCCNCC1CCc2ccccc2O1 (racemic) [Compound 150, (±)-N-[3-[[(3,4-dihydro-2H-1-benzopyran-2-yl)methyl]amino]propyl]-N'-(1-methylethyl)-guanidine dihydrochloride]
34.2 | c1ccc2c(c1)CCC(CNCCCCCNC1=NCCCN1)O2 (centres unmarked) [Compound 98]
42.2 | c1ccc2c(c1)CC[C@H](CNCCCCNC1=NCCCN1)O2 [Compound 99]
39 | Fc1ccc2c(c1)CCC(CNCCCNC1=NCCN1)O2 (centres unmarked) [Compound 106]
16.7 | c1ccc2c(c1)CCC(CNCCCNC1=NCCCCN1)O2 (centres unmarked) [Compound 111]
16.3 | N#Cc1ccnc(NCCCNCC2CCc3ccccc3O2)n1 (centres unmarked) [Compound 113]
95.6 | NC(=O)c1ccnc(NCCCNCC2CCc3ccccc3O2)n1 (centres unmarked) [Compound 114]
45.1 | c1ccc2c(c1)CCC(CNCCCNc1nccnn1)O2 (centres unmarked) [Compound 115]
68.2 | CCc1ccc2c(c1)OC(CNCCCNC1=NCCCCN1)CC2 (centres unmarked) [Compound 116]
444 | c1ccc2c(c1)CCC(CNCCNC1=NCCN1)O2 (centres unmarked) [Compound 129]
33.6 | c1ccc2c(c1)CCC(CNCCCNC1=NCCN1)O2 (centres unmarked) [Compound 130]
52.7 | CCc1ccc2c(c1)OC(CNCCCNC1=NCCN1)CC2 (centres unmarked) [Compound 133]
810 | c1ccc2c(c1)CCC(CN1CCC(NC3=NCCCN3)CC1)O2 (centres unmarked) [Compound 136]
150 | c1ccc2c(c1)CC[C@H](CN1CCC(NC3=NCCCN3)CC1)O2 [Compound 139]
495 | CCNC(=N)NCCNCC1CCc2ccccc2O1 (centres unmarked) [Compound 148]
99.2 | CCCNC(=N)NCCCNCC1CCc2ccccc2O1 (centres unmarked) [Compound 149]
27.1 | CN(C)C(=N)NCCCNCC1CCc2ccccc2O1 (centres unmarked) [Compound 151]
56 | Cc1ccc2c(c1)OC(CNCCCNC(=N)N(C)C)CC2 (centres unmarked) [Compound 152]
21.8 | CCc1ccc2c(c1)OC(CNCCCNC(=N)N(C)C)CC2 (centres unmarked) [Compound 153]
